Experimental data as given in article PMC6010133, “Synthesis and biological evaluation of N-arylpiperazine derivatives of 4,4-dimethylisoquinoline-1,3(2H,4H)-dione as potential antiplatelet agents” (Journal of Enzyme Inhibition and Medicinal Chemistry, 2018).
≈ marks a conversion by molar mass, not a printed value.

Legend:
[1] = target: T1, alpha 2B-AR (Homo sapiens, UniProt P18089); test: Intrinsic activity assay, antagonist mode, cells with stable expression of the α2B-adrenoceptor; assay type: cell-based; conditions: antagonist potency, read-out: Antagonist mode (IC50 ± SEM)
T1 sequence (P18089 1-450): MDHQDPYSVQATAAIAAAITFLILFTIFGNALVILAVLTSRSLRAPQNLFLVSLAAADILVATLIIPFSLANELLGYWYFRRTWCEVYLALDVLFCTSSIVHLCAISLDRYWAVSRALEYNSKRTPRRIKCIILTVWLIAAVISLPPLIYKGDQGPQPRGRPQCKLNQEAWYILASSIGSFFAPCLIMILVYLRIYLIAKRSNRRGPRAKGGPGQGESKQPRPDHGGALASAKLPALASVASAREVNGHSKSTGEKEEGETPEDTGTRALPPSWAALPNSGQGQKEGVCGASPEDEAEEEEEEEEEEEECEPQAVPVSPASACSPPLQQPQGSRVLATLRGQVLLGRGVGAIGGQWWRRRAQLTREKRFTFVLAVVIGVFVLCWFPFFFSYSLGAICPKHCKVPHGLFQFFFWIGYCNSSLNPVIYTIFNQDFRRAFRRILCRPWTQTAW
Method: An intrinsic activity assay was performed according to the instructions of the manufacturer of the assay kit containing ready-to-use cells with stable expression of the α2A-adrenoceptor (In-vitrogen, Life Technologies, Carlsbad, CA, USA) or α2B-adrenoceptor (PerkinElmer, Inc, Waltham, MA, USA).
Considering that a potent blockade of alpha 2B-ARs is required for the antiplatelet effect[8] ^, [9] we began an assessment of a pharmacological profile of all the synthesized molecules (3–11) with the evaluation of their alpha 2B-ARs antagonistic properties.

[2] = system: whole rat blood aggregation induced by collagen; test: In vitro whole blood aggregation test induced by collagen (Multiplate); assay type: cell-based; conditions: for IC50: whole rat blood, collagen 1.6 µg/mL; for anti-platelet efficacy at lower concentration: compound at 30 μM
Method: (§1) In vitro aggregation tests were conducted using freshly collected whole blood with Multiplate platelet function analyzer (Roche Diagnostics Polska Sp. z o.o., Warsaw, Poland), the five-channel aggregometer based on measurements of electric impedance. The Multiplate analyzer allows the duplicate measurement with dual electrode probes. Blood was drawn from carotid of rats with hirudin blood tube (Roche Diagnostic). 300 μL of hirudin anticoagulated blood was mixed with 300 μL pre-warmed isotonic saline solution containing studied compound in DMSO or DMSO (0.1% final) and pre-incubated for 3 min at 37 °C with continuous stirring. The agonists (ADPtest, COLtest, Roche Diagnostic) were diluted using isotonic sterile NaCl solution. Aggregation was induced by adding collagen (final concentration 1.6 µg/mL), or adrenaline and subthreshod concentration of ADP (final concentration 50 µM + 1.6 µM). Activated platelet function was recorded for 6 min. The Multiplate software analyzed the area under the curve of the clotting process of each measurement and calculated the mean values.
(§2) Data were presented as Mean ± SEM. Statistical comparisons were made by the analysis of variance (ANOVA) and significance of the differences between control group and treated groups was determined by Dunnet post hoc test. p < .05 was considered significant.
(§3) Based on the aforementioned results, the most interesting compounds (3, 4, 9, and 10) were selected for further studies. In order to evaluate the anti-platelet effects of the new compounds in vitro, freshly isolated rat whole blood was incubated with selected compounds (3–100 μM) or vehicle (DMSO), and the aggregation responses were evaluated with multiplate whole blood aggregometer by measuring impedance change. Platelet aggregation was induced by collagen or sub-threshold concentration of ADP and adrenaline. ARC-239 was used as a reference compound.

[3] = system: whole rat blood aggregation induced by ADP and adrenaline; test: In vitro whole blood aggregation test induced by ADP and adrenaline (Multiplate); assay type: cell-based; conditions: for IC50: whole rat blood, ADP and adrenaline 1.6 µM + 50 µM, read-out: B (ADP + A) IC50
Method: as §1, §2, §3
Combining adrenaline with the sub-threshold concentration of ADP produced a maximal aggregation response. The adrenaline-mediated amplification of ADP-stimulated aggregation was attenuated when rat blood was pre-incubated with 3, 9, 10, and ARC-239.

[4] = target: alpha 1-ARs; test: Radioligand binding assay, displacement of [3H]prazosin on rat cerebral cortex; conditions: read-out: Affinity for alpha 1-ARs Ki ± SD
Method: The affinity of the obtained compounds was evaluated by radioligand binding assays (the ability to displace [3H] prazosin and [3H]clonidine from a1- and a2-AR, respectively) on rat cerebral cortex. The brains are homogenised in 20 volumes of an ice-cold 50 mM Tris–HCl buffer (pH 7.6) and is centrifuged at 20,000 g for 20 min (0–4 °C). The cell pellet is resus-pended in the Tris–HCl buffer and centrifuged again. Radioligand binding assays are performed in plates (MultiScreen/Millipore). The final incubation mixture (final volume 300 μL) consisted of 240 µl of the membrane suspension, 30 μL of [3H]prazosin (0.2 nM) or [3H]clonidine (2 nM) solution and 30 μL of the buffer containing seven to eight concentrations (1.0^−11 to 1.0^−4 M) of the tested compounds. For measuring the unspecific binding, phentolamine, 10 µM (in the case of [3H]prazosin) and clonidine, 10 μM (in the case of [3H]clonidine) are applied. The incubation is terminated by rapid filtration over glass fiber filters (Whatman GF/C) using a vacuum manifold (Millipore). The filters are then washed twice with the assay buffer and placed in scintillation vials with a liquid scintillation cocktail. Radioactivity was measured in a WALLAC 1409 DSA liquid scintillation counter. All the assays were performed in duplicate.
Subsequently, we determined the selectivity vs. alpha 1-adrenoreceptor (Table 4). The final compounds 3–11 were submitted to a radioligand binding assay, measuring the ability to displace [^3H] prazosin from alpha 1-ARs, in the rat cerebral cortex. […] On the other hand, the introduction of a hydrophobic group into meta position of the phenylpiperazine ring (3, 4, 5, 6) caused a relatively weaker decrease. […] The incorporation of a bulky substituents such as; 2,2-dimethylbenzo[d][1,3]dioxole (9), benzo[d]oxazol-2(3H)-one (10), 2H-benzo[b][1,4]oxazin-3(4H)-one (11) maintained the affinity for alpha1-ARs.

[5] = Protein binding (plasma, human); assay type: in vitro ADME; conditions: 1.0E-05 M
Method: (§4) The in vitro bioavailability assays were performed by Eurofins Panlabs Inc. (St Charles, USA) according to the methods reported in publications listed below:
Protein binding: Banker, M.J et al. (2003) J. Pharm. Sci., 92:967–974[33],
(§5) Concerning the described above results, for the most promising compound 3, we performed early in vitro bioavailability assays, including aqueous solubility, human plasma protein binding, human liver microsomes stability, and Caco-2 permeability (Eurofins Bioavailability panel).

[6] = Metabolic stability (liver microsomes, human); assay type: in vitro ADME
Method: as §4
Microsomal stability: Obach, R.S et al. (1997) J Pharmacol Exp Ther, 283:[…][35].
as §5

[7] = Caco-2 permeability; assay type: in vitro ADME; conditions: human; Caco-2, pH 6.5/7.4; 1.0E-05 M
Method: as §4
Caco-2 permeability: Hidalgo, I.J et al. (1989) Gastroenterology, 96:736–749[34],
as §5

[8] = Aqueous solubility (Eurofins bioavailability panel); assay type: physicochemical; conditions: kinetic from dmso stock
Method: as §4
Solubility: Lipinski, C.A et al. (2001) Adv Drug Del Rev, 46:3–26[32],
as §5

Row | SMILES | IC50 [1] | IC50 [2] | IC50 [3] | Ki [4] | anti-platelet efficacy at lower concentration ([2]; collagen-induced) | also measured
1 | CC1(C)C(=O)N(CCN2CCN(c3cccc(Cl)c3)CC2)C(=O)c2ccccc21 [Compound 4, 2–(2-(4–(3-Chlorophenyl)piperazin-1-yl)ethyl)-4,4-dimethylisoquinoline-1,3(2H,4H)-dione] | 251 ± 71 nM | 34500 ± 2500 nM |  | 93 ± 2 nM | significant anti-platelet efficacies | inhibition against ADP and adrenaline induced blood aggregation ([3]; up to 100 μM): did not exhibit any significant inhibition
2 | CC1(C)C(=O)N(CCN2CCN(c3cccc(C(F)(F)F)c3)CC2)C(=O)c2ccccc21 [Compound 5, 4,4-Dimethyl-2–(2-(4–(3-(trifluoromethyl)phenyl)piperazin-1-yl)ethyl)isoquinoline-1,3(2H,4H)-dione] | > 1000 nM |  |  | 703 ± 1 nM |  | 
3 | COc1cccc(N2CCN(CCN3C(=O)c4ccccc4C(C)(C)C3=O)CC2)c1 [Compound 6, 2–(2-(4–(3-Methoxyphenyl)piperazin-1-yl)ethyl)-4,4-dimethylisoquinoline-1,3(2H,4H)-dione] | > 1000 nM |  |  | 78.4 ± 3.8 nM |  | 
4 | CC1(C)C(=O)N(CCN2CCN(c3cccc(O)c3)CC2)C(=O)c2ccccc21 [Compound 7, 2–(2-(4–(3-hydroxyphenyl)piperazin-1-yl)ethyl)-4,4-dimethylisoquinoline-1,3(2H,4H)-dione] | 758 ± 160 nM |  |  | 81.7 ± 5.5 nM |  | 
5 | CC1(C)C(=O)N(CCN2CCN(c3ncccn3)CC2)C(=O)c2ccccc21 [Compound 8, 4,4-Dimethyl-2–(2-(4-(pyrimidin-2-yl)piperazin-1-yl)ethyl)isoquinoline-1,3(2H,4H)-dione] | > 1000 nM |  |  | 1500 ± 100 nM |  | 
6 | CC1(C)C(=O)N(CCN2CCN(c3cccc4[nH]c(=O)oc34)CC2)C(=O)c2ccccc21 [Compound 10, 4,4-Dimethyl-2–(2-(4–(2-oxo-2,3-dihydrobenzo[d]oxazol-7-yl)piperazin-1-yl)ethyl)isoquinoline-1,3(2H,4H)-dione] | 61 ± 22.5 nM |  | 76500 ± 5800 nM | 10.3 ± 0.3 nM |  | 
7 | CC1(C)C(=O)N(CCN2CCN(c3cccc4c3OCC(=O)N4)CC2)C(=O)c2ccccc21 [Compound 11, 4,4-Dimethyl-2–(2-(4–(3-oxo-3,4-dihydro-2H-benzo[b][1,4]oxazin-8-yl)piperazin-1-yl)ethyl)isoquinoline-1,3(2H,4H)-dione] | > 1000 nM |  |  | 3 ± 0.1 nM |  | 

Further lines, with some results ahead:

Row | IC50 [1] | IC50 [2] | IC50 [3] | Ki [4] | SMILES | anti-platelet efficacy at lower concentration ([2]; collagen-induced) | also measured
8 | 8.4 ± 3.2 nM | 20700 ± 14700 nM | 63900 ± 21300 nM | 0.3 nM | COc1ccccc1N1CCN(CCN2C(=O)c3ccccc3C(C)(C)C2=O)CC1 [ARC-239, reference compound] |  | 
9 | 61 ± 25.4 nM | 26900 ± 18800 nM | 20500 ± 7100 nM | 30 ± 1 nM | CC1(C)C(=O)N(CCN2CCN(c3cccc(F)c3)CC2)C(=O)c2ccccc21 [Compound 3, 2–(2-(4–(3-Fluorophenyl)piperazin-1-yl)ethyl)-4,4-dimethylisoquinoline-1,3(2H,4H)-dione] | significant anti-platelet efficacies | % Protein bound [5]: 99%; half-life at 100 nM ([6]; 1.0E-07 M): 14.1 min; microsomal CLint at 100 nM ([6]; 1.0E-07 M, read-out: Intrinsic clearance): 14 µL/min/mg; % Compound remaining ([6]; incubation time 0 minutes): 100.0%; % Compound remaining ([6]; incubation time 15 minutes): 49%; % Compound remaining ([6]; incubation time 30 minutes): 18%; % Compound remaining ([6]; incubation time 45 minutes): 8%; % Compound remaining ([6]; incubation time 60 minutes): 6%; Papp A→B at 10 µM [7]: 7.7 ×10⁻⁶ cm/s; Papp B→A at 10 µM [7]: 2.6 ×10⁻⁶ cm/s; solubility ([8]; PBS, pH 7.4, aqueous buffer): 5.4 µM (≈ 2.14 µg/mL); solubility ([8]; fassgf or other biorelevant, simulated intestinal fluid, test concentration 2.0E-04 M): 68 µM (≈ 26.9 µg/mL); solubility ([8]; simulated gastric fluid): 151 µM (≈ 59.7 µg/mL)
10 | 47 ± 12.8 nM | 27400 ± 5300 nM | 54400 ± 5400 nM | 30 ± 0.2 nM | CC1(C)Oc2cccc(N3CCN(CCN4C(=O)c5ccccc5C(C)(C)C4=O)CC3)c2O1 [Compound 9, 2–(2-(4–(2,2-Dimethylbenzo[d][1,3]dioxol-4-yl)piperazin-1-yl)ethyl)-4,4-dimethylisoquinoline-1,3(2H,4H)-dione] | significant anti-platelet efficacies | platelet aggregation attenuated to ([2]; collagen-induced, compound at 100 μM): 59.3%
